This passage reports DNA unwinding concn results from US6528517B1, “Synthesis of quinobenzoxazine analogues with topoisomerase II and quadruplex interactions for use as antineoplastic agents” (Board of Regents, The University of Texas System, priority 1998, dated 2003).

Each structure is given as a SMILES string.

In the assay the test system is supercoiled pHOT1 DNA. Nature of the assay: DNA unwinding assay. It is filed as biochemical. As to conditions: concentration shifting topoisomers to the middle position between relaxed and supercoiled bands. The protocol:
A 22 μl mixture of 0.25 μg of supercoiled pHOT1 DNA, 5 units of topoisomerase I in topoisomerase I buffer (provided with the kit) was incubated at 37° C. for 30 min. Two μl of various concentrations of drug was added, and the incubation was continued for another 30 min. The reactions were terminated by addition of SDS to 1%. Proteinase K was added to the reaction mixtures to ca. 50 μg/ml, and the reaction mixtures were incubated for 15-20 min at 56° C. After adding 0.1 volume of 10×gel loading buffer, the reaction mixtures were extracted with an equal volume of CIA (Chloroform:isoamyl Alcohol; 24:1). The samples were loaded on an 1% agarous gel that was cast in TPE buffer (36 mM Tris-HCl, pH 7.8, 1 mM EDTA, 30 mM NaH2PO4) and 0.2 μg/ml Chloroquine. The gel was run in TPE buffer at room temperature at 10 volts for 20 h, destained in water for 15 min, stained in 0.05 μg/ml ethidium bromide for 15 min, and destained again in water for 15 min. The gel was then photographed, scanned by FluoroImager, and analyzed by ImageQuaNT software (Molecular Dynamics).

For `N[C@H]1CCN(c2c(F)cc3c(=O)c(C(=O)O)cn4c3c2Oc2ccccc2-4)C1` [Compound A-62176, 1-(3-aminopyrrolidin-1-yl)-2-fluoro-4-oxo-4H-quino[2,3,4-i,j][1,4]benzoxazine-5-carboxylic acid, reference compound], the DNA unwinding concn worked out at 50 µM.
